Results as given in publication PMC8350397, “GSK137, a potent small-molecule BCL6 inhibitor with in vivo activity, suppresses antibody responses in mice” (The Journal of Biological Chemistry, 2021).

How the values were obtained:
[1] = target: T1, human BCL6 BTB-POZ domain (SMRT co-repressor peptide) (Homo sapiens, UniProt P41182, C67R/C84N/C8Q); test: BCL6 TR-FRET assay, SMRT peptide displacement; type: binding
T1 construct: BCL6-Flag-6H-Avi (5-129) C8Q, C67R, C84N proteins; Flag (C); 6H (His6) (C); made in house; host or cells: E. coli
Method: Human, mouse and rat BCL6-Flag-6H-Avi (5-129) C8Q, C67R, C84N proteins were expressed in E. coli according to standard procedures and purified on Ni-NTA, followed by ion exchange on a Source 30Q column and size exclusion on an Superdex 200 column in a buffer of 20 mM Tris, 250 mM NaCl, 5 mM DTT, 5% glycerol, pH 8.5. All protein purities were estimated to be >90% by SDS-PAGE and the expected masses were confirmed by MS analysis. For TR-FRET assay protein was enzymatically biotinylated by treatment of protein at 100 µM with a 2 fold molar excess of biotin in the presence of 2 mM ATP and 1 µM BirA enzyme in a buffer of 50 mM bicine pH 8.3, 10 mM MgCl2 at 30 °C for 1 hour, followed by extensivedialysis against 50 mM Tris-Cl pH 8.0, 100 mM NaCl, 1 mM DTT using a 3.5 kDa cut-off membrane. Biotinylation was confirmed by MS analysis and concentration was determined by Bradford assay, after which protein was stored in aliquots at -80 °C.
Acceptor-labelled SMRT peptide H2N-[…](D2)-OH was dissolved in water by mass to give a 500 µM stock solution which was stored at -20 °C. Acceptor-labelled NCOR peptide H2N-[…](Alexa Fluor 647)-OH and acceptor-labelled BCOR peptide H2N-[…](Alexa Fluor 647)-OH were dissolved to a nominal concentration of 1 mM in DMSO, and stock solution concentration was determined by absorbance at 650 nm using an extinction coefficient of 270,000 M-1cm^-1. […]

ULA cells = test: Cell cycle analysis, ULA; type: cell-based; details: GSK137 0.1-10 μM; for fraction of cells in G1: BI3802 1 μM, 2 or 6 days; for dead or dying cells: day 6, BI3802 1 μM
Method: Farage, ULA, KARPAS-422, and VAL cells were seeded into 6-well tissue culture dishes in a total volume of 6 mL at densities of 6.25 x10^3, 7.81 x10^3, 6.25 x10^3, and 1.56 x10^3 cells/mL, respectively and incubated overnight at 37 °C and 5% CO2. Cells were then treated with 0.1 µM, 1 µM, or 10 µM GSK137 or 1 µM BI3802 for 2 or 6 days at 37 °C and 5% CO2. Cell cycle analysis was performed using the Click-iT EdU Alexa Fluor 647 Flow Cytometry Assay Kit (Thermo Fisher Scientific, Waltham, MA, USA) following the manufacturer’s instructions, with volumes adjusted for a […] U-bottom plate, and with an approximately 1 hour treatment with 10 μM EdU. After EdU treatment, approximately 2x10^5 cells per well were transferred into a 96-well, non-tissue culture treated U-bottom plate and stained with 6.7µg/ml final FxCycle Violet Stain for 30 minutes incubation at room temperature. Cells were then analyzed on a flow cytometer (BD FACS Canto […] or LSR FortessaTM X-20 (Becton Dickinson, Franklin Lakes, NJ, USA)) with compensation each day using one cell line and data analyzed using FlowJo software (version 10.3). Percentages of cells in each phase of the cell cycle were then averaged across technical replicates.

[2] = tested on: BCL6 target genes in Farage cells; test: Semiquantitative real-time PCR of ten BCL6 target genes; type: cell-based; details: 72-h treatment
Method: Farage cells were plated at a density of 3000 cells/100 µl in 96-well plates, incubated overnight at 37 °C then treated with a 10-point, 1:3-fold serial dilution of compound at a top concentration of 20 µM for GSK137 or 10 µM BI3802. Cells were returned to the incubator for 3 days prior to harvesting for RNA isolation. RNA was isolated using the TurboCapture 96 Kit (Qiagen, Hilden, Germany; # 72251), cDNA generated using the High Capacity cDNA Reverse Transcription kit (ABI, Foster City, CA, USA; #4374966) both following the manufacturer’s instructions. qPCR was performed on a ViiA7 real-time PCR machine (Life Technologies, Carlsbad, CA, USA) using the Fast TaqMan ΔΔCt method. Quadruplicate readings were measured for each biological replicate sample. Individual TaqMan assays are listed (Table S4). Expression data were analyzed using the Comparative Ct^(2–ΔΔ^Ct) method (42) The Ct values of the treated samples are compared to vehicle treated samples and normalized to GAPDH. Changes are presented as an average RQ (termed “relative expression”). RQ values between 0 and 1 correspond to a downregulation of gene expression, RQ values greater than 1 correspond to upregulation.

Row | SMILES | activity in cell-free assay compared with reported potency ([1]; cell-free) | fraction of cells in G1 (ULA cells) | dead or dying cells (ULA cells) | expression changes in a panel of 10 BCL6 target genes [2] | IC50 ([1]; from pIC50 = 8, read-out: affinity for the BCL6 BTB-POZ domain) [nM]
1 | CNC(=O)COc1cc2cc(Nc3nc(N4C[C@H](C)C[C@H](C)C4)ncc3Cl)ccc2n(C)c1=O [BI3802, reference compound] | consistent with the previously reported potency | increased fraction of cells in G1 at day 2 | ~40% | dose-dependent changes to six of the ten genes | 
2 | Cc1ncccc1[C@H]1C[C@@H](c2cccc3nc(N)ccc23)Nc2c(F)cnn21 [GSK137, 5-((5S,7R)-3-Fluoro-7-(2-methylpyridin-3-yl)-4,5,6,7-tetrahydropyrazolo[1,5-a]pyrimidin-5-yl)quinolin-2-amine] |  | modest dose and time-dependent G1 cell cycle arrest | no increase in dead or dying cells | clear increase only in SOCS2 with some increase in CD69 | 10
